Measurements published in ChEMBL document CHEMBL1641557, “3-(Pyridin-2-yl-ethynyl)benzamide metabotropic glutamate receptor 5 negative allosteric modulators: hit to lead studies” (Bioorg Med Chem Lett, 2011).
Each block holds one compound with its values, some of them ahead of it.

How the values were obtained:
[1] = Half life in rat liver microsomes; assay type: ADME, Microsome
[2] = Oral bioavailability in Beagle dog at 10 mg/kg; assay type: ADME, organism-based, Canis lupus familiaris; conditions: in vivo
[3] = Cmax in Swiss Webster mouse at 10 mg/kg, po; assay type: ADME, organism-based; design: dose 10 mg/kg, route oral; conditions: in vivo
[4] = Volume of distribution at steady state in Beagle dog at 2 mg/kg, iv; assay type: ADME, organism-based, Canis lupus familiaris; design: dose 2 mg/kg, route intravenous; conditions: in vivo, read-out: Vdss
[5] = Clearance in Sprague-Dawley rat at 2 mg/kg, iv; assay type: ADME, organism-based; design: dose 2 mg/kg, route intravenous; conditions: in vivo
[6] = Volume of distribution at steady state in Swiss Webster mouse at 2 mg/kg, iv; assay type: ADME, organism-based; design: dose 2 mg/kg, route intravenous; conditions: in vivo, read-out: Vdss
[7] = Volume of distribution at steady state in Sprague-Dawley rat at 2 mg/kg, iv; assay type: ADME, organism-based; design: dose 2 mg/kg, route intravenous; conditions: in vivo, read-out: Vdss
[8] = Clearance in Swiss Webster mouse at 2 mg/kg, iv; assay type: ADME, organism-based; design: dose 2 mg/kg, route intravenous; conditions: in vivo
[9] = Cmax in Sprague-Dawley brain rat at 10 mg/kg, po; assay type: ADME, organism-based; design: dose 10 mg/kg, route oral
[10] = AUClast in Beagle dog at 10 mg/kg, po; assay type: ADME, organism-based, Canis lupus familiaris; design: time 0 - last, dose 10 mg/kg, route oral; conditions: plasma
[11] = Half life in Beagle dog at 2 mg/kg, iv; assay type: ADME, organism-based, Canis lupus familiaris; design: dose 2 mg/kg, route intravenous; conditions: in vivo
[12] = Oral bioavailability in Swiss Webster mouse at 10 mg/kg; assay type: ADME, organism-based; conditions: in vivo
[13] = Cmax in Sprague-Dawley rat at 10 mg/kg, po; assay type: ADME, organism-based; design: dose 10 mg/kg, route oral; conditions: in vivo
[14] = Ratio of drug level in brain to plasma in Swiss Webster mouse at 10 mg/kg, po; assay type: ADME, organism-based; design: dose 10 mg/kg, route oral
[15] = Half life in Swiss Webster mouse at 2 mg/kg, iv; assay type: ADME, organism-based; design: dose 2 mg/kg, route intravenous; conditions: in vivo
[16] = Ratio of drug level in brain to plasma in Sprague-Dawley rat at 10 mg/kg, po; assay type: ADME, organism-based; design: dose 10 mg/kg, route oral
[17] = Cmax in Beagle dog at 10 mg/kg, po; assay type: ADME, organism-based, Canis lupus familiaris; design: dose 10 mg/kg, route oral; conditions: in vivo
[18] = Cmax in Swiss Webster mouse brain at 10 mg/kg, po; assay type: ADME, organism-based; design: dose 10 mg/kg, route oral
[19] = Oral bioavailability in Sprague-Dawley rat at 10 mg/kg; assay type: ADME, organism-based; conditions: in vivo
[20] = AUClast in Swiss Webster mouse at 10 mg/kg, po; assay type: ADME, organism-based; design: time 0 - last, dose 10 mg/kg, route oral; conditions: plasma
[21] = Clearance in Beagle dog at 2 mg/kg, iv; assay type: ADME, organism-based, Canis lupus familiaris; design: dose 2 mg/kg, route intravenous; conditions: in vivo
[22] = AUClast in Sprague-Dawley rat at 10 mg/kg, po; assay type: ADME, organism-based; design: time 0 - last, dose 10 mg/kg, route oral; conditions: plasma
[23] = Half life in Sprague-Dawley rat at 2 mg/kg, iv; assay type: ADME, organism-based; design: dose 2 mg/kg, route intravenous; conditions: in vivo

SMILES: O=C(c1cccc(C#Cc2ccccc2)c1)N1CCN(c2ccccn2)CC1
- half-life [1]: 3 min

SMILES: COc1cccc(C#Cc2cccc(C(=O)N3CCN(c4ccccn4)CC3)c2)c1
- half-life [1]: 3 min

SMILES: Nc1cccc(C#Cc2cccc(C(=O)N3CCN(c4ccccn4)CC3)c2)c1
- half-life [1]: 2 min

SMILES: COc1ccc(C#Cc2cccc(C(=O)N3CCN(c4ccccn4)CC3)c2)cc1
- half-life [1]: 4 min

SMILES: Cc1ccc(C#Cc2cccc(C(=O)N3CCN(c4ccccn4)CC3)c2)cc1
- half-life [1]: 5 min

SMILES: O=C(c1cccc(C#CCc2ccccc2)c1)N1CCN(c2ccccn2)CC1
- half-life [1]: 4 min

SMILES: O=C(c1cccc(C#Cc2ccccn2)c1)N1CCN(c2ccccn2)CC1
- half-life [1]: 5 min

SMILES: O=C(c1cccc(C#Cc2ccccc2)c1)N1CCN(c2cnccn2)CC1
- half-life [1]: 4 min

SMILES: O=C(c1cccc(C#Cc2ccccc2)c1)N1CCN(c2ccncn2)CC1
- half-life [1]: 3 min

SMILES: Cc1ccc(N2CCN(C(=O)c3cccc(C#Cc4ccccc4)c3)CC2)nc1
- half-life [1]: 13 min

SMILES: COc1ccc(C(=O)N2CCN(c3ccncn3)CC2)cc1C#Cc1ccccc1
- half-life [1]: 21 min

SMILES: COc1ccc(C(=O)N2CCN(c3ccc(C)cn3)CC2)cc1C#Cc1ccccc1
- half-life [1]: 16 min

SMILES: Cc1ccc(C(=O)N2CCN(c3ccccn3)CC2)cc1C#Cc1ccccc1
- half-life [1]: 13 min

SMILES: Cc1ccc(C(=O)N2CCN(c3cnccn3)CC2)cc1C#Cc1ccccc1
- half-life [1]: 9 min

SMILES: COc1ccc(C(=O)N2CCN(c3ccncn3)CC2)cc1C#Cc1cccc(Cl)c1
- half-life [1]: 7 min

Continued, values first:

- half-life [1]: 13 min
SMILES: COc1ccc(C(=O)N2CCN(c3ccccn3)CC2)cc1C#Cc1ccccc1

- half-life [1]: 5 min
SMILES: COc1ccc(C(=O)N2CCN(c3cnccn3)CC2)cc1C#Cc1ccccc1

- bioavailability [2]: 80%
- Cmax [3]: 3.5 µM
- Vd [4]: 0.5 L/kg
- clearance [5]: 12 mL/min/kg
- Vd [6]: 3.2 L/kg
- Vd [7]: 0.9 L/kg
- clearance [8]: 121 mL/min/kg
- Cmax [9]: 1.79 µM
- AUC(0-t) [10]: 47100 ng·h/mL
- half-life [11]: 126 min
- bioavailability [12]: 20%
- Cmax [13]: 11.9 µM
- Kp [14]: 0.31
- half-life [1]: 23 min
- half-life [15]: 12 min
- Kp [16]: 0.15
- Cmax [17]: 16.4 µM
- Cmax [18]: 1.09 µM
- bioavailability [19]: 85%
- AUC(0-t) [20]: 519 ng·h/mL
- clearance [21]: 3 mL/min/kg
- AUC(0-t) [22]: 13400 ng·h/mL
- half-life [23]: 60 min
SMILES: COc1ccc(C(=O)N2CCN(c3ccccn3)CC2)cc1C#Cc1ccccn1

- half-life [1]: 18 min
SMILES: COc1ccc(C(=O)N2CCN(c3ccncn3)CC2)cc1C#Cc1ccccn1

- half-life [1]: 11 min
SMILES: COc1ccc(C(=O)N2CCN(c3ccccn3)CC2)cc1C#Cc1cccc(C)n1

- half-life [1]: 15 min
SMILES: COc1ccc(C(=O)N2CCN(c3ccccn3)CC2)cc1C#Cc1nccs1

- half-life [1]: > 30 min
SMILES: COc1ccc(C(=O)N2CCN(c3ccc(C)cn3)CC2)cc1C#Cc1ccccn1
